Results on 34 compounds are retold here after US20240254119A1 (THIRD HARMONIC BIO, INC., priority 2022, published 2024).

This experiment deals with T1, wtKIT (Homo sapiens, UniProt P10721).
T1 construct: 1888289AM in the reaction mixtures
The experiment in a line: HTRF biochemical assay, wtKIT (phosphorylation of a peptide substrate). Particulars: Table 4. The method, then:
Exemplary compounds were tested for ability to inhibit the phosphorylation of a peptide substrate by the tyrosine kinase wt KIT, PDGFRα, or CSF-1R. Assay procedures and results are described below.
Enzyme, substrate, and cofactors (ATP and Mn^2+) are combined in a well of a microtiter plate and incubated for 3 hours at 25° C. At the end of the incubation, the reaction is quenched by the addition of an EDTA-containing buffer.
The substrate used in the CSF-1R and PDGFRα assay is FAM-[…]-CONH2 (FAM is carboxyfluorescein). Peptide should be >95% purity. The substrate for the KIT assay is FAM-[…]-NH2.
• 1. To a well of a 384-wellplate add 5 μL of 2× enzyme buffer (or control). • 2. Add 100 nL of 100× compound. Enzyme and compound may be pre-incubated at this time if desired. • 3. Add 5 μL of 2× substrate buffer. • 4. Incubate plate at 25° C. for 3 hours. • 5. Add 10 uL of anti-phosphotyrosine antibody buffer. • 6. Read plate in BioTek Synergy Reader. Reaction Conditions for wtKIT Assay
• 100 mM HEPES, pH 7.5 0.1% BSA • 0.01% Triton x-100 • 1 mM DTT • 10 mM MnCl2 • 10 μM Sodium Orthovanadate • 10 μM Beta-Glycerophosphate • 400 μM ATP • 1% DMSO (from compound) • 1 μM FAM-[…]-CONH2, 5.0 nM wtKIT Enzyme (1888289AM)* • *Specific activity may vary from lot to lot. Enzyme concentration may need to be adjusted to yield 10-20% conversion of substrate to product.

T1 sequence (P10721 26-976): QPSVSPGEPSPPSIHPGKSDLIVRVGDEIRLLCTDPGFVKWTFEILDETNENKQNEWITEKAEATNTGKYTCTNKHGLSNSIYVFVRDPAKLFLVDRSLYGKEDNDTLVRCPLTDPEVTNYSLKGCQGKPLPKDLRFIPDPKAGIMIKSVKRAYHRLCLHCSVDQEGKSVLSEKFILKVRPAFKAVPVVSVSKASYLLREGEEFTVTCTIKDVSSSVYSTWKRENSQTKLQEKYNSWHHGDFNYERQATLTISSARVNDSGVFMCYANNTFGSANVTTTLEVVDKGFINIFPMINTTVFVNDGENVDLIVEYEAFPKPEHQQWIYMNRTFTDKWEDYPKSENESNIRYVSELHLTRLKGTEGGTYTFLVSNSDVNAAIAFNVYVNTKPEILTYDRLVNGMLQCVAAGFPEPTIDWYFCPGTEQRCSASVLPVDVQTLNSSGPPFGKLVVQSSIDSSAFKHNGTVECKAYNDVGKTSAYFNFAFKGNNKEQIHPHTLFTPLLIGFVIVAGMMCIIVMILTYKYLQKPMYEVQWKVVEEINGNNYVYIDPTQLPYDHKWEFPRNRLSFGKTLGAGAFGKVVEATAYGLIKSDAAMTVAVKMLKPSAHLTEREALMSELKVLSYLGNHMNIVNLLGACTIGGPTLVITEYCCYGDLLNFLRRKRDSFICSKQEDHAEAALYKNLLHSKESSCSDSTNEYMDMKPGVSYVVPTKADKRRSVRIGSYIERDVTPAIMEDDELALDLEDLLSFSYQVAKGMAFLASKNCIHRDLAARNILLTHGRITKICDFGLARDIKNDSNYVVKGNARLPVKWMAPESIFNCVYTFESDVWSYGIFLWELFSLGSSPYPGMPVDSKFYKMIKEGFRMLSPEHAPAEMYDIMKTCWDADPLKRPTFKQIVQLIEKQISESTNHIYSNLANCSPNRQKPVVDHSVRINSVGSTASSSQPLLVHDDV

In general, IC50 refers to the point on the concentration scale where inhibition reaches its midpoint. `Cc1ccc(-c2noc(CC3COC3)n2)cc1NC(=O)c1cnc2cc(COCC3(O)CC3)ccn12` [Compound I-637]: the IC50 is 50 to 500 nM.
Consider `Cc1ccc(-c2noc([C@H]3C[C@@H]3F)n2)cc1NC(=O)c1cnc2cc(COCC(C)(C)O)c(F)cn12` [Compound I-498, 6-fluoro-N-[5-[5-[(1R,2S)-2-fluorocyclopropyl]-1,2,4-oxadiazol-3-yl]-2-methyl-phenyl]-7-[(2-hydroxy-2-methyl-propoxy)methyl]imidazo[1,2-a]pyridine-3-carboxamide], for which the IC50 is at most 50 nM.
With `Cc1ccc(-c2noc(CC(O)C(F)F)n2)cc1NC(=O)c1cnc2cc(COCC(C)N(C)C(=O)OC(C)(C)C)ccn12` (stereo not shown) [Compound I-600], the IC50 is 50 to 500 nM.
Consider `Cc1ccc(-c2noc(CC(O)C(F)F)n2)cc1NC(=O)c1cnc2ccccn12` (stereo not shown) [Compound I-476], for which the IC50 is at most 50 nM.
To `Cc1ccc(-c2noc(CC(O)CN3CCOCC3)n2)cc1NC(=O)c1cnc2ccccn12` (stereo not shown) [Compound I-543] belongs 50 to 500 nM; to `Cc1ccn2c(C(=O)Nc3cc(-c4noc(CC(=O)CF)n4)ccc3C)cnc2c1` [Compound I-589], 500 to 5000 nM.
Then `CCc1nc(-c2ccc(C)c(NC(=O)c3cnn4cc(-c5ccn(C)n5)ccc34)c2)no1` [Compound I-722], with at most 50 nM.
To `Cc1nc(-c2ccc(C)c(NC(=O)c3cnn4cc(C(F)F)ccc34)c2)no1` [Compound I-569] belongs 50 to 500 nM; to `Cc1ccc(-c2noc([C@H]3C[C@@H]3F)n2)cc1NC(=O)c1cnc2cc(C(C)OCCO)ccn12` (relative stereo) [Compound I-451, N-[5-[5-[(1R,2S)-2-fluorocyclopropyl]-1,2,4-oxadiazol-3-yl]-2-methyl-phenyl]-7-[(1R*)-1-(2-hydroxyethoxy)ethyl]imidazo[1,2-a]pyridine-3-carboxamide], at most 50 nM; to `COc1ccn2c(C(=O)Nc3cc(-c4noc(Cc5ccccc5)n4)ccc3C)cnc2c1` [Compound I-552, N-(5-(5-benzyl-1,2,4-oxadiazol-3-yl)-2-methylphenyl)-7-methoxyimidazo[1,2-a]pyridine-3-carboxamide], at most 50 nM.
With `COCc1ccn2c(C(=O)Nc3cc(-c4noc([C@@H]5CC6(CC6)CN5)n4)ccc3C)cnc2c1` [Compound I-638, N-[5-[5-[(6S)-5-azaspiro[2.4]heptan-6-yl]-1,2,4-oxadiazol-3-yl]-2-methyl-phenyl]-7-(methoxymethyl)imidazo[1,2-a]pyridine-3-carboxamide], the IC50 is at most 50 nM.
Then `Cc1ccc(-c2noc([C@H]3C[C@@H]3F)n2)cc1NC(=O)c1cnc2cc(CCCC(C)(C)O)ccn12` [Compound I-452, N-[5-[5-[(1R,2S)-2-fluorocyclopropyl]-1,2,4-oxadiazol-3-yl]-2-methyl-phenyl]-7-(4-hydroxy-4-methyl-pentyl)imidazo[1,2-a]pyridine-3-carboxamide], with at most 50 nM; and `COCc1ccn2c(C(=O)Nc3cc(-c4ncon4)ccc3C)cnc2c1` [Compound I-677], with 50 to 500 nM; and `Cc1ccc(-c2noc([C@H]3C[C@@H]3F)n2)cc1NC(=O)c1cnc2cc(COCC(=O)O)ccn12` [Compound I-477, 2-((3-((5-(5-((1R,2S)-2-fluorocyclopropyl)-1,2,4-oxadiazol-3-yl)-2-methylphenyl)carbamoyl)imidazo[1,2-a]pyridin-7-yl)methoxy)acetic acid], with at most 50 nM.
Then `Cc1ccc(-c2noc([C@H]3C[C@@H]3F)n2)cc1NC(=O)c1cnc2ccc(-c3ccn(C)n3)cn12` [Compound I-531, N-(5-(5-((1R,2S)-2-fluorocyclopropyl)-1,2,4-oxadiazol-3-yl)-2-methylphenyl)-6-(1-methyl-1H-pyrazol-3-yl)imidazo[1,2-a]pyridine-3-carboxamide], with at most 50 nM; and `Cc1ccc(-c2noc([C@H]3C[C@@H]3F)n2)cc1NC(=O)c1cnc2cc(COC[C@H](O)C(F)F)ccn12` [Compound I-501, 7-(((S)-3,3-difluoro-2-hydroxypropoxy)methyl)-N-(5-(5-((1R,2S)-2-fluorocyclopropyl)-1,2,4-oxadiazol-3-yl)-2-methylphenyl)imidazo[1,2-a]pyridine-3-carboxamide], with at most 50 nM; and `Cc1ccc(-c2noc(CC(O)C(C)(C)C)n2)cc1NC(=O)c1cnc2ccccn12` (stereo not shown) [Compound I-519], with at most 50 nM.
Then `Cc1ccc(-c2noc(C[C@H](O)C(F)F)n2)cc1NC(=O)c1cnc2cc(OCCCC(C)(C)O)ccn12` [Compound I-580, (S)—N-(5-(5-(3,3-difluoro-2-hydroxypropyl)-1,2,4-oxadiazol-3-yl)-2-methylphenyl)-7-((4-hydroxy-4-methylpentyl)oxy)imidazo[1,2-a]pyridine-3-carboxamide], with at most 50 nM; and `Cc1ccc(-c2noc(N3CC(F)(F)C3)n2)cc1NC(=O)c1cnc2cc(F)c(Cl)cn12` [Compound I-610], with 50 to 500 nM; and `Cc1ccc(-c2noc(C[C@H](O)C(F)F)n2)cc1NC(=O)c1cnc2ccc(-c3ccn(C)n3)cn12` [Compound I-562, (S)—N-(5-(5-(3,3-difluoro-2-hydroxypropyl)-1,2,4-oxadiazol-3-yl)-2-methylphenyl)-6-(1-methyl-1H-pyrazol-3-yl)imidazo[1,2-a]pyridine-3-carboxamide], with at most 50 nM.
On to `Cc1ccc(-c2noc([C@H](C)O)n2)cc1NC(=O)c1cnc2cc(-c3cscn3)ccn12` [Compound I-721], for which the IC50 was at most 50 nM.
Then `Cc1ccnc(-c2nc(-c3ccc(C)c(NC(=O)c4cnc5cc(C)ccn45)c3)no2)c1` [Compound I-549, 7-methyl-N-(2-methyl-5-(5-(4-methylpyridin-2-yl)-1,2,4-oxadiazol-3-yl)phenyl)imidazo[1,2-a]pyridine-3-carboxamide], with at most 50 nM.
With `Cc1ccc(-c2noc([C@H]3C[C@@H]3F)n2)cc1NC(=O)c1cnn2cc(F)ccc12` [Compound I-486, 6-fluoro-N-(5-(5-((1R,2S)-2-fluorocyclopropyl)-1,2,4-oxadiazol-3-yl)-2-methylphenyl)pyrazolo[1,5-a]pyridine-3-carboxamide], the IC50 was at most 50 nM.
To `Cc1ccc(-c2noc([C@H]3C[C@@H]3F)n2)cc1NC(=O)c1cnc2cc(COCC(C)O)ccn12` (single isomer, unassigned) [Compound I-469, N-[5-[5-[(1R,2S)-2-fluorocyclopropyl]-1,2,4-oxadiazol-3-yl]-2-methyl-phenyl]-7-[[(2S*)-2-hydroxypropoxy]methyl]imidazo[1,2-a]pyridine-3-carboxamide] belongs at most 50 nM; to `Cc1ccc(-c2noc(CC(O)C(F)F)n2)cc1NC(=O)c1cnc2cc(COCCO)ccn12` (single isomer, unassigned) [Compound I-511], 50 to 500 nM; to `Cc1ccc(-c2noc([C@H]3C[C@@H]3F)n2)cc1NC(=O)c1cnc2cc(-c3cscn3)ccn12` [Compound I-547, N-(5-(5-((1R,2S)-2-fluorocyclopropyl)-1,2,4-oxadiazol-3-yl)-2-methylphenyl)-7-(thiazol-4-yl)imidazo[1,2-a]pyridine-3-carboxamide], at most 50 nM.
With `CNCC(O)Cc1nc(-c2ccc(C)c(NC(=O)c3cnc4ccccn34)c2)no1` (stereo not shown) [Compound I-557], the IC50 was in the range of 5000 to 30000 nM.
Then `Cc1nc(-c2ccc(C)c(NC(=O)c3cnc4cc(C5CCNC5=O)ccn34)c2)no1` (stereo not shown) [Compound I-448], with 500 to 5000 nM; and `COc1ccn2c(C(=O)Nc3cc(-c4noc(Cc5ccc(C)cc5)n4)ccc3C)cnc2c1` [Compound I-537, 7-methoxy-N-(2-methyl-5-(5-(4-methylbenzyl)-1,2,4-oxadiazol-3-yl)phenyl)imidazo[1,2-a]pyridine-3-carboxamide], with at most 50 nM; and `COc1cc2ncc(C(=O)Nc3cc(-c4noc(N5CC(F)(F)C5)n4)ccc3C)n2cc1F` [Compound I-611], with at most 50 nM.
To `Cc1ccc(-c2noc(C3CC3F)n2)cc1NC(=O)c1cnc2cc(C(C)OCCO)ccn12` (single isomer, unassigned) [Compound I-450, N-[5-[5-[(1R,2S)-2-fluorocyclopropyl]-1,2,4-]-7-[(1S*)-1-(2-hydroxyethoxadiazol-3-yl]-2-methyl-phenyloxy)ethyl]imidazo[1,2-a]pyridine-3-carboxamide] belongs at most 50 nM; to `CCc1nc(-c2ccc(C)c(NC(=O)c3cnc4cc(OC)ccn34)c2)no1` [Compound I-737], at most 50 nM.
With `CCc1nc(-c2ccc(C)c(NC(=O)c3cnc4cc(F)ccn34)c2)no1` [Compound I-739], the IC50 was at most 50 nM.
To `Cc1ccc(-c2noc([C@H]3C[C@@H]3F)n2)cc1NC(=O)c1cnc2ccc(C(C)(C)O)cn12` [Compound I-457, N-(5-(5-((1R,2S)-2-fluorocyclopropyl)-1,2,4-oxadiazol-3-yl)-2-methylphenyl)-6-(2-hydroxypropan-2-yl)imidazo[1,2-a]pyridine-3-carboxamide] belongs at most 50 nM.
